Laboratory results taken from article PMC8752738, “A propolis-derived small molecule ameliorates metabolic syndrome in obese mice by targeting the CREB/CRTC2 transcriptional complex” (Nature Communications, 2022).
Where “and” joins values, the source holds several entries; their conditions need not be identical. Equal values may be shown once.

What was measured:
[1] = tested on: cAMP in primary hepatocytes; test: Measurement of cAMP levels; format: cell-based, mouse; settings: for cAMP, mean / cAMP: Gluc; for cAMP, mean: n=4 (Ctrl_Gluc 10.79); for cAMP: Supp. fig.3c, individual replicates
Method: At the end of indicated treatments, primary hepatocytes were collected in lysis buffer. The cAMP contents of cell lysates were then determined using cAMP ELISA kits (R&D) and normalized by total protein content as determined by BCA assay (Thermo).

[2] = molecular target: T1, CRTC2 / SEC31A interaction (Mus musculus, UniProt Q3U182+Q3UPL0); test: Co-immunoprecipitation CRTC2 / SEC31A; format: biochemical; settings: APC 10 μM in IP mixture
T1 construct: expressed in transfected cells; host or cells: HEK293
T1 sequence (Q3U182 whole entry): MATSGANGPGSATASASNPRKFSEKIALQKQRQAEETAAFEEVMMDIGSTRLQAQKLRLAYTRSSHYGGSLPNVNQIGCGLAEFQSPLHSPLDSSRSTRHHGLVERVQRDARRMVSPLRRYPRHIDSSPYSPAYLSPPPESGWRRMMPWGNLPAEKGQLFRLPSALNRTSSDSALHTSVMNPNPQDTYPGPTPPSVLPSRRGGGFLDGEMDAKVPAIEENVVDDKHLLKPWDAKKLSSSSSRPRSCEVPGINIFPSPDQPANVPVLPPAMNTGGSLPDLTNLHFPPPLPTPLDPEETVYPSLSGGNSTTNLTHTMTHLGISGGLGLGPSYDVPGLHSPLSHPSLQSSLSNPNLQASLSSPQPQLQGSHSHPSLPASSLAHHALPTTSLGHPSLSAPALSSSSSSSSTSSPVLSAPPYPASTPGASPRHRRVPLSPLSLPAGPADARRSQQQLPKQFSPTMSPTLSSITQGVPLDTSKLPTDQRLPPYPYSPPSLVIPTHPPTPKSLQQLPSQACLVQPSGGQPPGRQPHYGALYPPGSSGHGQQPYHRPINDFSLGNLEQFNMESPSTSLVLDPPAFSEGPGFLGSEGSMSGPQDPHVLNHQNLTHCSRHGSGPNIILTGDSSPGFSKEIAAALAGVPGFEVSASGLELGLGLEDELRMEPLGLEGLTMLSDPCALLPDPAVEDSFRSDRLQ
T1 sequence (Q3UPL0 whole entry): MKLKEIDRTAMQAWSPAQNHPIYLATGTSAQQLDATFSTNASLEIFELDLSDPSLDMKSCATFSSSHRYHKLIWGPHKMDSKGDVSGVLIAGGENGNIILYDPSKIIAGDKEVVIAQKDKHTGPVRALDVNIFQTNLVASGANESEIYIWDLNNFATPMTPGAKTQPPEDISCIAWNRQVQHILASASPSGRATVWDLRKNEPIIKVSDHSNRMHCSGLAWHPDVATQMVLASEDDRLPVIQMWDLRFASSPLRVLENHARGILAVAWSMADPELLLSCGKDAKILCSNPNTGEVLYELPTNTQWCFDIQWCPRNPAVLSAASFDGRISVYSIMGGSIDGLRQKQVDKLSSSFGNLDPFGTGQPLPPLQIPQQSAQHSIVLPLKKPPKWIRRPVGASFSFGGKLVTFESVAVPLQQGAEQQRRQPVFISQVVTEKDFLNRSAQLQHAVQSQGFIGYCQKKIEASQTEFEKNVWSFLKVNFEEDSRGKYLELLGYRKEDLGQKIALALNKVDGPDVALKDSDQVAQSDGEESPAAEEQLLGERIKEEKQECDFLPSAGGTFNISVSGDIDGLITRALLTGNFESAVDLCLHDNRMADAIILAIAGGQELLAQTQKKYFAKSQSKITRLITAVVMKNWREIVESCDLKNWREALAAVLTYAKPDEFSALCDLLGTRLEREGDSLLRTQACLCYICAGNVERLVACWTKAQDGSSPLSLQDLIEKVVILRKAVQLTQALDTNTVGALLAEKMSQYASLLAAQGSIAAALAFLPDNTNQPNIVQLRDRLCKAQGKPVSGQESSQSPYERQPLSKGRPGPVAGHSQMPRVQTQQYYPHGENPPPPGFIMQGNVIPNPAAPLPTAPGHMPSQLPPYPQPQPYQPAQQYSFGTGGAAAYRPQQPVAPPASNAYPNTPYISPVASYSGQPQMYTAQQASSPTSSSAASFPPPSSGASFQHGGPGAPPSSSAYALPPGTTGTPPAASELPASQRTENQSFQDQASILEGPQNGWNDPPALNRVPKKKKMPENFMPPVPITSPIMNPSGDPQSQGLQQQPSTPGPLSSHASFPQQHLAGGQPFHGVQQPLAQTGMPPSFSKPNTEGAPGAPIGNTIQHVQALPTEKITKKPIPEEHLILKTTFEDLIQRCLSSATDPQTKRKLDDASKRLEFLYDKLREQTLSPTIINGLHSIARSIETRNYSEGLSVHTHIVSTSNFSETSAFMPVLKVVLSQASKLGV
Method: 1 b) Immunoprecipitation of SEC31A from HEK293 cell lysates with overexpressed […] or
2 FLAG-Crtc2-WT. APC (10 μM) was added to the IP mixture overnight. One of two independent
3 experiments is shown here. […]
5 administered MET and APC as in (a). Data are represented as mean ± SEM (n=6 per group). *,
6 p < 0.05; **, p < 0.01; p values were determined by two-way ANOVA followed Bonferroni’s multiple
7 comparisons test. Source data for this figure are provided as a Source data file.

[3] = Metabolic chamber assay; format: in vivo, mouse; settings: DIO ip APC; for AUC of RER, %, group mean: mean of APC group, N=4; for AUC of RER, % / RER of DIO: single animals
Method: Metabolic parameters of mice were determined using Columbus Instruments Comprehensive Lab Animal Monitoring System (CLAMS). The area unit under the curve (AUC) of respiratory exchange ratio (RER) and ambulatory activity (X-TOT) were calculated using Graphpad prism 8.0.

Structure (SMILES): CC(C)=CCc1cc(C=CC(=O)O)cc(CC=C(C)C)c1O [APC, 3,5-diprenyl-4-hydroxycinnamic acid]
- cAMP, mean ([1]; APC 0.5H): 11.36 pmol/µg
- cAMP, mean ([1]; APC 1H): 10.43 pmol/µg
- cAMP, mean ([1]; APC 5H): 10.31 pmol/µg
- cAMP ([1]; APC 0.5H): 9.765 pmol/µg and 13.6965 pmol/µg and 13.5803 pmol/µg and 8.4137 pmol/µg
- cAMP ([1]; APC 1H): 10.9076 pmol/µg and 11.1137 pmol/µg and 11.3636 pmol/µg and 8.343 pmol/µg
- cAMP ([1]; APC 5H): 11.3502 pmol/µg and 9.481 pmol/µg and 11.2821 pmol/µg and 9.132 pmol/µg
- cAMP accumulation induced by glucagon ([1]; primary hepatocytes): did not alter
- protein interaction between CRTC2 and SEC31A [2]: no impact
- AUC of RER, %, group mean ([3]; Dark): 65.31%
- AUC of RER, %, group mean ([3]; Light): 53.9%
- AUC of RER, % ([3]; Light): 54.07% and 52.83% and 53.85% and 54.85%
- RER of DIO, column mean over the RER curve ([3]; Mean of APC, 70 intervals, 4 animals): 0.8038
- AUC of RER, %, column mean over total, light and dark ([3]; Mean of APC, two-way RM ANOVA): 79.47%
- AUC of RER, %, group mean ([3]; Total): 119.2%
- AUC of RER, % ([3]; Total): 125.06% and 111.68% and 115.24% and 124.86%
- AUC of RER, % ([3]; dark): 70.99% and 58.85% and 61.39% and 70.01%
- RER of DIO ([3]; interval 1, hour 0): 0.728 and 0.729 (2×) and 0.733
- RER of DIO ([3]; interval 2, hour 0.7): 0.795 and 0.774 and 0.72 and 0.734
- RER of DIO ([3]; interval 3, hour 1.1): 0.732 and 0.773 and 0.726 and 0.735
- RER of DIO ([3]; interval 4, hour 1.5): 0.747 and 0.761 and 0.73 and 0.738
- RER of DIO ([3]; interval 5, hour 1.8): 0.78 and 0.778 and 0.722 and 0.754
- RER of DIO ([3]; interval 6, hour 2.2): 0.747 and 0.794 and 0.723 and 0.738
- RER of DIO ([3]; interval 7, hour 2.6): 0.764 and 0.792 and 0.716 and 0.758
- RER of DIO ([3]; interval 8, hour 2.9): 0.779 and 0.804 and 0.705 and 0.738
- RER of DIO ([3]; interval 9, hour 3.3): 0.766 and 0.82 and 0.724 and 0.727
- RER of DIO ([3]; interval 10, hour 3.7): 0.818 and 0.814 and 0.729 and 0.75
- RER of DIO ([3]; interval 11, hour 4.0): 0.78 and 0.803 and 0.732 and 0.733
- RER of DIO ([3]; interval 12, hour 4.4): 0.735 and 0.792 and 0.714 and 0.756
- RER of DIO ([3]; interval 13, hour 4.8): 0.768 and 0.812 and 0.743 and 0.781
- RER of DIO ([3]; interval 14, hour 5.1): 0.759 and 0.799 and 0.716 and 0.757
- RER of DIO ([3]; interval 15, hour 5.5): 0.769 and 0.778 and 0.775 and 0.742
- RER of DIO ([3]; interval 16, hour 5.9): 0.783 and 0.804 and 0.718 and 0.774
- RER of DIO ([3]; interval 17, hour 6.2): 0.75 and 0.77 and 0.709 and 0.78
- RER of DIO ([3]; interval 18, hour 6.6): 0.801 and 0.79 and 0.715 and 0.767
- RER of DIO ([3]; interval 19, hour 7.0): 0.759 and 0.797 and 0.758 and 0.785
- RER of DIO ([3]; interval 20, hour 7.3): 0.769 and 0.747 and 0.713 and 0.758
- RER of DIO ([3]; interval 21, hour 7.7): 0.841 and 0.78 and 0.749 and 0.771
- RER of DIO ([3]; interval 22, hour 8.1): 0.782 and 0.771 and 0.743 and 0.797
- RER of DIO ([3]; interval 23, hour 8.4): 0.804 and 0.814 and 0.781 and 0.79
- RER of DIO ([3]; interval 24, hour 8.8): 0.838 and 0.788 and 0.764 and 0.822
- RER of DIO ([3]; interval 25, hour 9.2): 0.844 and 0.798 and 0.804 and 0.842
- RER of DIO ([3]; interval 26, hour 9.5): 0.809 and 0.808 and 0.794 and 0.831
- RER of DIO ([3]; interval 27, hour 9.9): 0.818 and 0.808 and 0.792 and 0.849
- RER of DIO ([3]; interval 28, hour 10.3): 0.832 and 0.843 and 0.84 and 0.846
- RER of DIO ([3]; interval 29, hour 10.6): 0.841 and 0.824 and 0.818 and 0.858
- RER of DIO ([3]; interval 30, hour 11.0): 0.821 and 0.847 and 0.832 (2×)
- RER of DIO ([3]; interval 31, hour 11.4): 0.844 and 0.835 and 0.841 and 0.829
- RER of DIO ([3]; interval 32, hour 11.7): 0.827 and 0.833 and 0.828 and 0.825
- RER of DIO ([3]; interval 33, hour 12.1): 0.841 and 0.831 and 0.816 (2×)
- RER of DIO ([3]; interval 34, hour 12.5): 0.864 and 0.863 and 0.842 and 0.837
- RER of DIO ([3]; interval 35, hour 12.8): 0.866 and 0.842 and 0.843 and 0.836
- RER of DIO ([3]; interval 36, hour 13.2): 0.891 and 0.836 and 0.797 and 0.825
- RER of DIO ([3]; interval 37, hour 13.6): 0.88 and 0.869 and 0.798 and 0.846
- RER of DIO ([3]; interval 38, hour 13.9): 0.846 and 0.848 and 0.837 and 0.814
- RER of DIO ([3]; interval 39, hour 14.3): 0.854 and 0.82 and 0.839 and 0.825
- RER of DIO ([3]; interval 40, hour 14.7): 0.86 and 0.846 and 0.828 and 0.83
- RER of DIO ([3]; interval 41, hour 15.0): 0.866 and 0.871 and 0.84 and 0.828
